Test results as given in PubChem BioAssay AID2839 (Southern Research Specialized Biocontainment Screening …, 2010).
Activity calls are given as the source filed them. No rule for the calls is given here.

Assays:
[1] = test system: Salmonella Typhi PhoP-promoter GFP reporter, low Mg2+, 4 h; assay: PhoP promoter GFP reporter reduction in Typhi – purified and synthesized compounds, set 2, PhoP regulon inhibitor project, dose response (AID 2839)
[2] = as above; details: Salmonella Typhi PhoP-promoter GFP reporter, low Mg2+, 4 h; at 150 µM (top of the series)

Row | SMILES | IC50 [1] [µM] | inhibition [2]
1 | COc1ccccc1NC(=O)N1CCCN(Cc2ccccc2F)C1 | 136 | 
2 | O=C1C2=C(Nc3ccccc3SC2c2ccsc2)c2ccccc21 (stereo not drawn) | 34.5 | 
3 | S=C(NCc1ccc(Cl)cc1)Nc1ccc(Br)cc1 |  | 6.57% (inactive)
4 | COc1ccc(CNC(=S)Nc2ccncc2)cc1 | 48.1 | 
5 | O=C(Nc1ccccc1)N1CCCN(Cc2ccc(F)cc2)C1 | 72.2 | 
6 | COc1c(N2CCN(C(=S)NCc3ccccc3)C(C)C2)c(F)cc2c(=O)c(C(=O)O)cn(C3CC3)c12 (stereo not drawn) | 79.1 | 
7 | O=C1C2=C(Nc3ccccc3SC2c2ccco2)c2ccccc21 (stereo not drawn) | 16.8 | 
8 | CCn1cc(C(=O)O)c(=O)c2cc(F)c(N3CCN(C(=S)Nc4ccccc4C(F)(F)F)CC3)cc21 | 24.1 | 
9 | CCCCn1c(NS(=O)(=O)c2ccc(C)cc2)c(S(=O)(=O)c2ccccc2)c2nc3ccccc3nc21 | < 0.15 | 
10 | O=[N+]([O-])c1ccc(CNC2CCCc3ccccc32)cc1 (stereo not drawn) | 16.6 | 
11 | O=C1C2=C(Nc3ccccc3SC2c2ccc(I)cc2)c2ccccc21 (stereo not drawn) | 3.67 | 
12 | S=C(NCc1ccccc1Cl)Nc1ccncc1 | 131 | 
13 | CCOc1ccc(NC(=S)N2CCN(c3cc4c(cc3F)c(=O)c(C(=O)O)cn4CC)CC2)cc1 | 47.6 | 
14 | CCn1cc(C(=O)O)c(=O)c2cc(F)c(N3CCN(C(=S)NC(=O)c4ccccc4F)CC3)cc21 | 95.9 | 
15 | CCn1cc(C(=O)O)c(=O)c2cc(F)c(N3CCN(C(=S)Nc4ccc(Cl)cc4)CC3)cc21 | 60.8 | 
16 | O=C1C2=C(Nc3ccccc3SC2c2ccccc2C(F)(F)F)c2ccccc21 (stereo not drawn) |  | 7.29% (inactive)
17 | O=C(Nc1ccc(Br)cc1)N1CCCN(Cc2ccccc2F)C1 | 61.6 | 
18 | O=C(Nc1ccccc1Cl)N1CCCN(Cc2ccccc2F)C1 |  | 16.8% (inactive)
19 | COc1ccc(NC(=O)c2cc(Br)c(Br)s2)cn1 | < 0.15 | 
20 | O=C1C2=C(Nc3ccccc3SC2c2ccc(C(F)(F)F)cc2)c2ccccc21 (stereo not drawn) | < 2.35 | 
21 | CN1CCN(C2=Cc3cc(Cl)ccc3Sc3cc(F)ccc32)CC1 | 53.7 | 
22 | O=C(Nc1ccccc1)N1CCCN(Cc2ccccc2F)C1 |  | 28.7% (inactive)
23 | N#C/C(=C\c1ccc[nH]1)C(=O)NC1CC1 | 60.4 | 
24 | COc1cccc(C2Sc3ccccc3NC3=C2C(=O)c2ccccc23)c1 (stereo not drawn) | 33.4 | 
25 | O=C(Nc1cccnc1)c1cc(Br)c(Br)s1 | < 0.15 | 
26 | CCn1cc(C(=O)O)c(=O)c2cc(F)c(N3CCN(C(=S)NC(=O)c4ccccc4Cl)CC3)cc21 | 20.5 | 
27 | CCCCCNC(=O)c1cn(CC)c2cc(N3CCN(C)CC3)c(F)cc2c1=O | < 0.15 | 

Row | SMILES | IC50 [1] [µM] | inhibition [2]
28 | O=c1c2ccccc2[nH]c2ccc(F)cc12 | < 0.15 | 
29 | C1=C(CCNc2ncnc3c2[nH]c2ccccc23)CCCC1 | 106 | 
30 | CN1CCc2nc(SCC(=O)Nc3cccc(F)c3)c(C#N)c(-c3cccs3)c2C1 | 0.05 | 
31 | Cc1ccc(CN2CCCN(C(=O)Nc3ccc(Cl)cc3)C2)cc1 | 46.2 | 
32 | S=C(NCc1ccc(Cl)cc1)Nc1ccc(Cl)cc1 |  | 22.4% (inactive)
33 | CCCCn1c(NS(=O)(=O)c2ccccc2)c(S(=O)(=O)c2ccc(C)cc2)c2nc3ccccc3nc21 | < 0.15 | 
34 | CN(C)CCCN(C(=O)CCc1ccccc1)c1nc2ccc(Cl)cc2s1 | < 0.15 | 
35 | O=C1c2ccccc2C2=Nc3ccccc3SC(c3ccccc3F)C12 (stereo not drawn) | < 0.15 | 
36 | COc1cccc(NC(=S)NCc2ccc(Cl)cc2)c1 |  | -3.63% (inactive)
37 | S=C(NCc1ccc(Cl)cc1)Nc1cccnc1 |  | -36.6% (inactive)
38 | O=C(O)c1cn(-c2ccc(F)cc2)c2cc(Cl)c(F)cc2c1=O | < 0.15 | 
39 | COc1ccc(NC(=S)NCc2ccc(Cl)cc2)cc1 |  | 8.24% (inactive)
40 | S=C(NCc1ccc(Cl)cc1)Nc1cccc(Cl)c1 |  | 29.4% (inactive)
41 | Cc1ccc(Nc2cc(C)c3c(O)cccc3n2)cc1C | 9.67 | 
42 | Cc1cccc(NC(=S)NCc2ccc(Cl)cc2)c1 |  | 16.8% (inactive)
43 | O=C(Nc1ccc(Cl)cc1)N1CCCN(Cc2ccc(F)cc2)C1 | 61.4 | 
44 | O=C(NCc1ccccc1)N1CCCN(Cc2ccccc2F)C1 |  | 6.93% (inactive)
45 | O=C(Nc1ccc(Cl)cc1)N1CCCN(Cc2ccccc2F)C1 | 31.3 | 
46 | CCn1cc(C(=O)O)c(=O)c2cc(F)c(N3CCN(C(=S)NC)CC3)cc21 |  | 4.25% (inactive)
47 | Cc1ccc(NC(=S)NCc2ccc(Cl)cc2)cc1 |  | 13.6% (inactive)
48 | Fc1ccccc1NC(=S)NCc1ccc(Cl)cc1 |  | -0.65% (inactive)
49 | CCn1cc(C(=O)O)c(=O)c2cc(F)c(N3CCN(C(=S)NCc4ccccc4)CC3)cc21 |  | 9.85% (inactive)
50 | S=C(NCc1ccc(Cl)cc1)Nc1ccncc1 | 15.9 | 
51 | O=S(=O)(Nc1c(S(=O)(=O)c2ccccc2)c2nc3ccccc3nc2n1C1CCCCC1)c1ccccc1 | < 0.15 | 
52 | COc1ccccc1Nc1nc(NCc2ccco2)c2ccccc2n1 | < 0.15 | 
53 | O=C(Nc1nnc(-c2cccs2)o1)c1cccc(C(F)(F)F)c1 | 80.1 | 
